Among the data in patent US20250059207A1, “6,6-FUSED HETEROCYCLIC COMPOUNDS AS METTL3 INHIBITORS” (858 Therapeutics, Inc., priority 2021, published 2025) are IC50 values, retold here.

This experiment concerns MOLM-13 cells. The experiment can be described thus: Viability assay in MOLM-13 cells (CellTiter-Glo 2.0). The experiment is classed as cell-based, human. As to conditions: read-out: MOLM-13 IC50 (cell viability). For orientation: In ATP-based viability assays light output follows the ATP content of the culture.
Where [1] appears, read: MOLM-13 human AML cells, 72 hours, CellTiter-Glo 2.0.

Molecules are shown by their SMILES. pIC50: −log10 of the molar value. Like-named read-outs stand apart in the source and are kept apart here. A value given as a limit tells only on which side of the number the result lay.

Broadly, the pIC50 is the IC50 on a negative log10 scale, so that one unit is a factor of ten.

Method: Effects of test compounds on the proliferation and viability of human AML cells was evaluated using the MOLM-13 cell line (AddexBio Technologies cat. no. C0003003). […] Test compounds or controls (Bortezomib or DMSO) diluted in 2% DMSO/media were added to each well for final concentrations of 0.2% DMSO and 0.1-1 μM Bortezomib. The cells were incubated for 72 hours at 37° C. and 5% CO2. At the end of the 72 hour incubation, plates were removed from the incubator, cooled to room temperature and equal volume of CellTiter-Glo 2.0 (Promega) added to each well. After mixing and incubating the plate at room temperature for 10 minutes the luminescence was read using a plate reader. […] Concentration-response-curves and IC50 values were generated using Collaborative Drug Discovery software.

On to `CC1CCN(Cc2ccc3nc(Cn4ccc5c(N6CC7(CCOCC7)C6)cncc5c4=O)cn3c2)CC1` [Compound 138, 2-({6-[(4-methylpiperidin-1-yl)methyl]imidazo[1,2-a]pyridin-2-yl}methyl)-5-{7-oxa-2-azaspiro[3.5]nonan-2-yl}-1,2-dihydro-2,7-naphthyridin-1-one], for which the pIC50 under setting [1] was 5.00 to 6.00.
Still for that read-out and setting: then `O=c1c2cncc(N3CC4(CCOCC4)C3)c2ccn1Cc1cn2cc(CN3CCC4(C3)CC(F)(F)C4)ccc2n1` [Compound 140, 2-{[6-({2,2-difluoro-6-azaspiro[3.4]octan-6-yl}methyl)imidazo[1,2-a]pyridin-2-yl]methyl}-5-{7-oxa-2-azaspiro[3.5]nonan-2-yl}-1,2-dihydro-2,7-naphthyridin-1-one], with 5.00 to 6.00.
On the same count and under the same terms, under `O=c1c2cncc(N3CC4(CCOCC4)C3)c2ccn1Cc1cn2cc(CN3CCC4(CC3)CC4(F)F)ccc2n1` [Compound 141, 2-{[6-({1,1-difluoro-6-azaspiro[2.5]octan-6-yl}methyl)imidazo[1,2-a]pyridin-2-yl]methyl}-5-{7-oxa-2-azaspiro[3.5]nonan-2-yl}-1,2-dihydro-2,7-naphthyridin-1-one] stands < 5.00; under `O=c1c2cncc(N3CC4(C3)CC(F)(F)C4)c2ccn1Cc1cn2cc(CNCC3CC(F)C3)ccc2n1` (centres unmarked) [Compound 142, 5-{6,6-difluoro-2-azaspiro[3.3]heptan-2-yl}-2-{[6-({[(3-fluorocyclobutyl)methyl]amino}methyl)imidazo[1,2-a]pyridin-2-yl]methyl}-1,2-dihydro-2,7-naphthyridin-1-one], 5.00 to 6.00.
The same measure, in the same setting: under `O=c1c2cncc(N3CC4(COC4)C3)c2ccn1Cc1cn2cc(CNCC3CC(F)C3)ccc2n1` (centres unmarked) [Compound 143, 2-{[6-({[(3-fluorocyclobutyl)methyl]amino}methyl)imidazo[1,2-a]pyridin-2-yl]methyl}-5-{2-oxa-6-azaspiro[3.3]heptan-6-yl}-1,2-dihydro-2,7-naphthyridin-1-one] stands 5.00 to 6.00; under `O=c1c2cncc(N3CC4(CCCOC4)C3)c2ccn1Cc1cn2cc(CNCC3CC(F)C3)ccc2n1` (centres unmarked) [Compound 145, 2-{[6-({[(3-fluorocyclobutyl)methyl]amino}methyl)imidazo[1,2-a]pyridin-2-yl]methyl}-5-{6-oxa-2-azaspiro[3.5]nonan-2-yl}-1,2-dihydro-2,7-naphthyridin-1-one], 5.00 to 6.00; under `O=c1c2cncc(N3CC4(CCC(F)(F)CC4)C3)c2ccn1Cc1cn2cc(CNCC3CC(F)C3)ccc2n1` (centres unmarked) [Compound 146, 5-{7,7-difluoro-2-azaspiro[3.5]nonan-2-yl}-2-{[6-({[(3-fluorocyclobutyl)methyl]amino}methyl)imidazo[1,2-a]pyridin-2-yl]methyl}-1,2-dihydro-2,7-naphthyridin-1-one], 5.00 to 6.00.
In the case of `O=c1c2cncc(N3CCC4(C3)CC(F)(F)C4)c2ccn1Cc1cn2cc(CNCC3CC(F)C3)ccc2n1` (centres unmarked) [Compound 147, 5-{2,2-difluoro-6-azaspiro[3.4]octan-6-yl}-2-{[6-({[(3-fluorocyclobutyl)methyl]amino}methyl)imidazo[1,2-a]pyridin-2-yl]methyl}-1,2-dihydro-2,7-naphthyridin-1-one], under setting [1], the pIC50 is 5.00 to 6.00.
Regarding `O=c1c2cncc(N3CC(N4CCC(F)CC4)C3)c2ccn1Cc1cn2cc(CNCC3CC(F)C3)ccc2n1` (centres unmarked) [Compound 148, 2-{[6-({[(3-fluorocyclobutyl)methyl]amino}methyl)imidazo[1,2-a]pyridin-2-yl]methyl}-5-[3-(4-fluoropiperidin-1-yl)azetidin-1-yl]-1,2-dihydro-2,7-naphthyridin-1-one], the pIC50 under setting [1] is 5.00 to 6.00.
As to `O=c1c2cncc(N3CC(c4ccncc4)C3)c2ccn1Cc1cn2cc(CNCC3CC(F)C3)ccc2n1` (centres unmarked) [Compound 149, 2-{[6-({[(3-fluorocyclobutyl)methyl]amino}methyl)imidazo[1,2-a]pyridin-2-yl]methyl}-5-[3-(pyridin-4-yl)azetidin-1-yl]-1,2-dihyro-2,7-naphthyridin-1-one], the pIC50 under setting [1] is 5.00 to 6.00.
On to `O=c1c2cncc(N3CC(c4ccc(F)cc4)C3)c2ccn1Cc1cn2cc(CNCC3CC(F)C3)ccc2n1` (centres unmarked) [Compound 150, 2-{[6-({[(3-fluorocyclobutyl)methyl]amino}methyl)imidazo[1,2-a]pyridin-2-yl]methyl}-5-[3-(4-fluorophenyl)azetidin-1-yl]-1,2-dihydro-2,7-naphthyridin-1-one], for which the pIC50 under setting [1] was 5.00 to 6.00.
For `O=c1c2cncc(N3CC4(CCOC4)C3)c2ccn1Cc1cn2cc(CNCC34CC(F)(C3)C4)ccc2n1` [Compound 151, 2-((6-((((3-fluorobicyclo[1.1.1]pentan-1-yl)methyl)amino)methyl)imidazo[1,2-a]pyridin-2-yl)methyl)-5-(6-oxa-2-azaspiro[3.4]octan-2-yl)-2,7-naphthyridin-1(2H)-one], for the setting “Homo sapiens, MOLM-13, 72 h”, the pIC50 is > 6.00.
Turning to `O=c1c2cncc(N3CC4(CCCOC4)C3)c2ccn1Cc1cn2cc(CNCC34CC(F)(C3)C4)ccc2n1` [Compound 153, 2-[(6-{[({3-fluorobicyclo[1.1.1]pentan-1-yl}methyl)amino]methyl}imidazo[1,2-a]pyridin-2-yl)methyl]-5-{6-oxa-2-azaspiro[3.5]nonan-2-yl}-1,2-dihydro-2,7-naphthyridin-1-one], the pIC50 under setting [1] was > 6.00.
`O=c1c2cncc(-c3ccccc3F)c2ccn1Cc1cn2cc(CNCC34CC(F)(C3)C4)ccc2n1` [Compound 154, 2-[(6-{[({3-fluorobicyclo[1.1.1]pentan-1-yl}methyl)amino]methyl}imidazo[1,2-a]pyridin-2-yl)methyl]-5-(2-fluorophenyl)-1,2-dihydro-2,7-naphthyridin-1-one]: the negative-log IC50 (pIC50) under setting [1] is 5.00 to 6.00.
In the case of `NC(=O)c1ccc(-c2cncc3c(=O)n(Cc4cn5cc(CNCC67CC(F)(C6)C7)ccc5n4)ccc23)cc1` [Compound 155, 4-{7-[(6-{[({3-fluorobicyclo[1.1.1]pentan-1-yl}methyl)amino]methyl}imidazo[1,2-a]pyridin-2-yl)methyl]-8-oxo-7,8-dihydro-2,7-naphthyridin-4-yl}benzamide], the pIC50 under setting [1] is 5.00 to 6.00.
Consider `O=c1c2cncc(C3CCC3)c2ccn1Cc1cn2cc(CNCC3CC(F)C3)ccc2n1` (centres unmarked) [Compound 156, 5-cyclobutyl-2-{[6-({[(3-fluorocyclobutyl)methyl]amino}methyl)imidazo[1,2-a]pyridin-2-yl]methyl}-1,2-dihydro-2,7-naphthyridin-1-one], for which, under setting [1], the pIC50 is < 5.00.
Still for that read-out and setting: then `O=c1c2cncc(N3CC4(COC4)C3)c2cnn1Cc1cn2cc(CNCC34CC(F)(C3)C4)ccc2n1` [Compound 157, 3-[(6-{[({3-fluorobicyclo[1.1.1]pentan-1-yl}methyl)amino]methyl}imidazo[1,2-a]pyridin-2-yl)methyl]-8-{2-oxa-6-azaspiro[3.3]heptan-6-yl}pyrido[3,4-d]pyridazin-4-one], with 5.00 to 6.00.
